No end group written: not given here.
Experiments:
Test in all cases: biochemical
[1] = target: DR1 (DRB1*0101) (Homo sapiens, UniProt P01903+P01911, A100R/D57E/F55L/F60I/F76Y/I96L/L162R/M171V/P40L/Q125E/R42F/V115G/Y59C); format: binding
[2] = target: DR4w4 (DRB1*0401) (Homo sapiens, UniProt P01903+P01911, A100K/A169T/F76Y/I96L/K127E/L162R/M171V/N62H/P40V/Q125Y/R42H/S133A/S149N/S66Y/V115G/V209L/W38E); format: binding
[3] = target: DR7 (DRB1*0701) (Homo sapiens, UniProt P01903+P01911, A100R/A102G/A103Q/D57E/D86V/E43K/F76Y/K127E/L162R/M171V/P40G/Q125H/Q99D/R33Q/R42Y/R54Q/S133A/S66F/T210M/V115G/Y107V/Y59L/Y89S); format: binding
[4] = target: DRB1*0405 (Homo sapiens, UniProt P01903+P01911, A100R/A169T/D86S/F76Y/I96L/K127E/L162R/M171V/N62H/P40V/Q125Y/R42H/S133A/S149N/S66Y/V115G/V209L/W38E); format: binding
[5] = target: DRB1*0802 (Homo sapiens, UniProt P01903+P01911, A100R/A103L/A169T/F76Y/H45Y/I96F/K41T/L162R/M171V/P40S/Q125H/Q178H/Q39Y/Q99D/R218S/R42G/S66Y/V115G/W38E); format: binding
[6] = target: DRB1*0901 (Homo sapiens, UniProt P01903+P01911, A100R/A103E/D57H/D86V/F55Y/F60I/F76Y/I96F/K127E/L162R/M171V/P40D/Q125H/Q99R/R33Q/R42F/S133A/S66N/T210M/V115G/W38K/Y107V/Y59G/Y89S); format: binding
[7] = target: DRB1*1501 (Homo sapiens, UniProt P01903+P01911); format: binding
[8] = target: DRB4*0101 (Homo sapiens, UniProt P01903+P13762, G164S); format: binding
[9] = target: DRB1*1101 (Homo sapiens, UniProt P01903+P01911, A100R/A169T/A87E/I96F/K41T/L162R/M171V/P40S/Q125H/Q178H/Q39Y/Q99D/R42S/S66Y/T262R/V115G/W38E); settings: Binding affinity DRB1 *1101
DRB1*1101, sequence (P01903 26-254 limits assumed, other chains not shown): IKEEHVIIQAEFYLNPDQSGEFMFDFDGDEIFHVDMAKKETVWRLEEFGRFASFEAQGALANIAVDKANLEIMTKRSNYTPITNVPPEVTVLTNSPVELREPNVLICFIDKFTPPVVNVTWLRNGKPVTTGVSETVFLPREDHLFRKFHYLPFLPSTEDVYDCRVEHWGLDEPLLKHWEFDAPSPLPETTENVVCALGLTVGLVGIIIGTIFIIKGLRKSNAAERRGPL

[10] = target: DRB5*0101 (Homo sapiens, UniProt P01903+Q30154); settings: Binding affinity DRB5 *0101
[11] = target: DRB1*1302 (Homo sapiens, UniProt P01903+P01911, A100E/A169T/K41T/L162R/M171V/P40S/Q125H/Q178H/Q39Y/Q99D/R42S/S66N/T262R/V115G/W38E/Y61H); format: binding
DRB1*1302, sequence (P01903 26-254 limits assumed, other chains not shown): as above

Row | Sequence | IC50 [1] | IC50 [2] | IC50 [3] | IC50 [4] | IC50 [5] | IC50 [6] | IC50 [7] | IC50 [8] | IC50 [9] | IC50 [10] | IC50 [11]
1 | HQVVPSLVASKTKAF [Peptide 90.0023] | > 20 µM | > 20 µM | 2.73 µM | > 20 µM | > 20 µM | > 20 µM | > 20 µM | > 20 µM | > 20 µM | > 20 µM | 
2 | IAYYYAQLADSNSNA [Peptide 89.0072] | 0.382 µM | 0.753 µM |  | 4.87 µM | 7.81 µM | 3.09 µM | 0.097 µM | 2.39 µM | > 20 µM | > 20 µM | > 20 µM
3 | ILLYGAANTGKSLFG [Peptide 89.0018] | 0.23 µM | 0.15 µM | 6.13 µM | > 20 µM | 1.75 µM | > 20 µM |  | 5.06 µM | 2.76 µM | 1.58 µM | 2.69 µM
4 | ITHIGHQVVPPMAVS [Peptide 90.0010] | 0.05 µM | 0.235 µM | 4.99 µM | 17.1 µM | 12.2 µM | > 20 µM | 10.1 µM | 1.22 µM | > 20 µM | > 20 µM | 
5 | LIRMECALLYTAKQM [Peptide 89.0179] | 0.998 µM |  | 7.47 µM | > 20 µM | > 20 µM | > 20 µM | > 20 µM | > 20 µM | > 20 µM | > 20 µM | > 20 µM
6 | LLQLKCPPILLTSNI [Peptide 89.0091] | 0.037 µM | 1.44 µM | 0.613 µM | > 20 µM | 7.29 µM | > 20 µM |  | 0.122 µM | > 20 µM | > 20 µM | 
7 | LNTVKIPPTVQISTG [Peptide 90.0028] | 8.74 µM | > 20 µM | > 20 µM | > 20 µM | > 20 µM | 6.92 µM |  | > 20 µM | > 20 µM | > 20 µM | 0.778 µM
8 | PEWIEQQTVLQHSFD [Peptide 89.0105] |  |  | 6.21 µM | 5.59 µM |  |  | 11.3 µM | 0.98 µM |  |  | 1.31 µM
9 | SWGMVVLLLVRYKCG [Peptide 89.0005] |  | 4.67 µM |  | 0.401 µM | > 20 µM | 0.777 µM | 4.15 µM | 4.2 µM | 2.11 µM | > 20 µM | 
10 | TLAVSKNKALQAIEL [Peptide 89.0150] |  | > 20 µM | > 20 µM | 1.64 µM | > 20 µM | 5.22 µM | > 20 µM | 0.036 µM | > 20 µM | > 20 µM | 
11 | TPEWIDRLTVLQHSF [Peptide 89.0069] | 14.6 µM |  | 5.21 µM | 0.987 µM | 0.275 µM | > 20 µM | 3.83 µM | 0.122 µM |  | > 20 µM | 8.86 µM
12 | TPEWIEQQTVLQHSF [Peptide 89.0104] | 0.949 µM |  | > 20 µM | 2.88 µM | 14.1 µM | > 20 µM | 13 µM | > 20 µM | > 20 µM | 5.46 µM | > 20 µM

Source: patent US9340577B2, “HLA binding motifs and peptides and their uses” (priority 1992, dated 2016)
